Measurements from US20150037399A1, “NOVEL USE OF PIPOXOLAN AND ITS PHARMACEUTICAL COMPOSITION” (China Medical University, priority 2013, published 2015).

Legend:
[1] = system: PCNA-positive cells; experiment: Carotid ligation model, PCNA antibody staining of the carotid artery; assay type: in vivo, ICR mice; conditions: mice
Procedure: Male ICR mice, weighing 20 to 25 g, were used as a carotidligation model. Fifteen mice were randomly assigned to 3 treatment groups, five mice for each group. All mice were fasted overnight with free access to water, then anesthetized with zoletil® (25 mg/kg i.p.). Carotid ligation was performed by a midline neck incision and the left common carotid artery exposed. The carotid artery was completely ligated just proximal to the carotid bifurcation, and the right carotid artery served as a non-injured control artery. The incision was closed after ligation, and the animals were allowed to recover. On the day of carotid ligation, mice were randomized into 3 treatment groups and anesthetized as described. Group 1 mice were treated with saline and groups 2 and 3 treated with pipoxolan (10 mg/kg and 30 mg/kg, respectively). Subsequent pipoxolan and saline treatments were given by gastric gavage on the second day after carotid ligation and once daily for 28 days. […] Images were digitized and analyzed with Image-Pro software. The areas of the lumen, internal elastic lamina (IEL), and external elastic lamina (EEL) were determined by computerized planimetry. The intima area was calculated by subtracting the luminal from the IEL area, and media area was determined by subtracting the IEL area from the EEL area. The ratio of intima to media area (I/M ratio) was calculated and analyzed. […]

[2] = system: cleaved caspase-3 positive cells; experiment: Immunohistochemical staining of cleaved caspase-3 in rat brain slices; assay type: in vivo, Sprague-Dawley (SD) rats; conditions: rat cortex
Procedure: Nine rats were randomly assigned into 3 treatment groups, three rats for each group. Group 1 rats were treated with saline and groups 2 and 3 treated with pipoxolan (10 mg/kg and 30 mg/kg, respectively). Focal ischemia was induced by occlusion of both CCA and the right MCA as previously described. Twenty four hours after focal ischemia, rats were deeply anesthetized by intraperitoneal injection of 50 mg/kg of zoletil® followed by intracardiac perfusion with 200 ml of 0.9% saline, followed by 4% paraformaldehyde in 0.1 M PBS and animals were decapitated. The percentage of positive TUNEL staining cells within areas of the cortex was estimated. Rat brain slices were incubated with anti-caspase-3 antibodies (GTX73093, GeneTex Inc., USA) overnight and immunohistochemical labeled using a NovoLink Polymer Detection System Kit (Leica Microsystems Inc., Newcastle Upon Tyne, UK). The percentage of positive caspase-3 staining cells within the cortex was estimated based on the average number of cells in a defined area.

[3] = system: MMP-2; experiment: Western blot of MMP-2 in PDGF-BB-stimulated VSMCs; assay type: cell-based
Procedure: The role of matrix metalloproteinase-2/9 (MMP-2/9) and the Ras/MEK/ERK signaling pathways were used to evaluate the effect of pipoxolan on VSMCs migration. The protein expression levels were determined by Western blot analysis. Each vertical bars represented mean±S.E. **p<0.01 and ***p<0.001 compared with control group (n=6 in each group).

[4] = system: TUNEL positive cells; experiment: TUNEL assay in cortex of ischemic rats; assay type: in vivo, Sprague-Dawley (SD) rats; conditions: rat cortex, 24 hr after focal ischemia
Procedure: Nine rats were randomly assigned into 3 treatment groups, three rats for each group. Group 1 rats were treated with saline and groups 2 and 3 treated with pipoxolan (10 mg/kg and 30 mg/kg, respectively). Focal ischemia was induced by occlusion of both CCA and the right MCA as previously described. Twenty four hours after focal ischemia, rats were deeply anesthetized by intraperitoneal injection of 50 mg/kg of zoletil® followed by intracardiac perfusion with 200 ml of 0.9% saline, followed by 4% paraformaldehyde in 0.1 M PBS and animals were decapitated. The percentage of positive TUNEL staining cells within areas of the cortex was estimated.

[5] = system: PDGF-BB-induced migration of A7r5 cells (VSMCs); experiment: In vitro wound healing assay; assay type: cell-based; conditions: PDGF-BB 30 ng/ml, 5, 10 and 15 μM, 24, 48 and 72 hr, dose-dependent
Procedure: The VSMCs cell line A7r5 was purchased from Bioresource Collection and Research Center (Hsinchu, Taiwan). A7r5 cells were plated onto 6-well plates in DMEM, supplemented with 10% FBS, 100 units/ml penicillin, 100 μg/ml streptomycin and 2 mM L-glutamine and grown at 37° C. under a humidified 5% CO2 and 95% air at one atmosphere. The effects of pipoxolan on VSMCs migration were evaluated by a wound-healing assay. Platelet-derived growth factor (PDGF) form VMSCs can cause cell migration, which results in intimal hyperplasia. A7r5 cells were plated in 6-well plates (2×10^5 cells per well) and damage was performed with a single scratch wound using a sterile micropipette tip. Cells were then incubated with or without PDGF-BB (30 ng/ml) and pipoxolan (5, 10, 15 μM) in serum-reduced DMEM medium (containing 0.5% fetal bovine serum). The extent of wound closure was determined using a phase contrast microscope at 24, 48, and 72 hr following wounding. Cell migration was expressed by the migration distance of drug-treated cells (mm) divided by the migration distance of untreated cells (mm).

## Cl.O=C1OC(CCN2CCCCC2)OC1(c1ccccc1)c1ccccc1 (stereo not drawn) [pipoxolan, 5,5-diphenyl-2-(2-piperidin-1-ylethyl)-1,3-dioxolan-4-one hydrochloride]
[1]; 10 mg/kg p.o. once daily for 28 days after carotid ligation
  percent inhibition of PCNA-positive cells: 42.11%
[1]; 30 mg/kg p.o. once daily for 28 days after carotid ligation
  percent inhibition of PCNA-positive cells: 62.40%
[2]; 10 mg/kg
  reduction of cleaved caspase 3 positive cells: 37.18%
[2]; 30 mg/kg
  reduction of cleaved caspase 3 positive cells: 63.44%
[3]; 10 μM
  reduction of MMP-2 protein level: 12.4%
[3]; 15 μM
  reduction of MMP-2 protein level: 24.4%
[4]; 10 mg/kg
  percent reduction of TUNEL positive cells: 31.25%
[4]; 30 mg/kg
  percent reduction of TUNEL positive cells: 46.88%
[5]
  effect on PDGF-BB-induced cell migration (wound closure): markedly inhibited
